Here are results for one molecule from US20260021186A1, “Fatty Acid-D-Amino Acid Peptides Conjugates as Anaplerotic Compounds for Use in Treating Propionic Acidemia, Methylmalonic Acidurias, and Energy Metabolic Disorders” (University of Pittsburgh - Of the Commonwealth System of …, priority 2022, published 2026).

The structures appear in SMILES notation.

The subject of test [1] is Fb859 propionic acidemia patient fibroblasts. The test is described as follows: Lysine succinylation of cellular proteins by immunofluorescence confocal microscopy. In kind it is cell-based, human. Conditions: media without glucose. Here is the method: FIG. 7 are immunocytochemistry photomicrographs showing the effect of incubation of Fb859 propionic acidemia patient fibroblasts on for lysine succinylation with 90 μM of PMA010, 90 μM of PMA011, 90 μM of succinic acid, 90 μM of methylmalonic acid, or 90 μM adipic acid for 72 hours. Immunocytochemistry of the fibroblast cells were stained for anti-succinyllysine antibody, anti-MTCO1 antibody and DAPI for nuclei. Instrument: Zeiss LSM 710 confocal Microscopy. Magnification: 40×. The cells were grown in glass coverslips at a seeding density of 3-5×10^4 cells. The media for untreated and treatment groups had no glucose, glutamine or pyruvate, and lipid stripped FBS was included instead of regular FBS. Scale bar=20 μm.
FIGS. 8A-8F are a comparison of lysine succinylation of cellular proteins visualized by immunofluorescence confocal microscopy in a Propionic Acidemia (Fb859) patient untreated (FIG. 8A) and treated with 30 μM and 90 μM of D-Serine (FIG. 8B), 30 µM and 90 μM of PMA007 (FIG. 8C), or 30 μM and 90 μM of PMA010 (FIG. 8D). Scale bar=20 μm. FIG. 8E is a bar graph showing the quantification of the percent change in lysine succinylation (green) signal, from the immunofluorescence confocal micrographs of FIGS. 8B and 8C, in response to the treatment of D-serine and PMA007. FIG. 8F is a bar graph showing the quantification of the percent change in lysine succinylation (green) signal, from the immunofluorescence confocal micrographs of a D-Serine repeat experiment and FIG. 8D, in response to the treatment of D-serine and PMA010. Asterisks indicate statistical significance calculated at the raw data level (n=3); **P<0.01, ***P<0.001, ****P<0.0001 statistically compared to untreated. Statistical analysis used T-test.
Immunohistochemistry: Patient cells were grown in glass coverslips at a seeding density of 3-5×10^4 cells. The media for untreated and treatment groups had no glucose, glutamine or pyruvate, and lipid stripped FBS was included instead of regular FBS. NIH Image J software was used to quantify the fluorescence intensity from 50-60 cells per group. Immunocytochemistry of propionic acidemia patient (Fb859) fibroblast cells lines stained for anti-succinyllysine (Green), anti-MTCO1 (Red), or anti-TOMM20 antibodies, and DAPI (Blue) for nuclei. Instrument: Zeiss LSM 710 confocal Microscopy. Statistical analysis used Tukey multiple range test. ****P<0.0001, [PMA010] (90 μM) treatment group statistically compared to control cells grown in the presence of regular complete DMEM media, untreated and [PMA010] (30 μM) cells grown in the absence of glucose/pyruvate/L-glutamine.

Test [2] deals with HEK293 PCCA−/− cells. The description is as above. In kind it is cell-based, human. Conditions: FIGS. 9C, 9D; 30 μM and 90 μM; media without glucose, pyruvate, and glutamine. On the procedure: FIGS. 9A-9F are a comparison of lysine succinylation of cellular proteins visualized by immunofluorescence confocal microscopy in human HEK293 control and HEK293 PCCA^−/− cells untreated (FIGS. 9A and 9B) and treated with 30 μM and 90 μM of PMA007 (FIG. 9C) or 30 μM and 90 μM of PMA010 (FIG. 9D). The cells in FIGS. 9B, 9C, and 9D were grown in media without glucose, pyruvate, and glutamine. Scale bar=20 μm. FIG. 9E is a bar graph showing the quantification of the percent change in lysine succinylation (green) signal, from the immunofluorescence confocal micrographs of FIGS. 9B and 9C, in response to the treatment of PMA007. FIG. 9F is a bar graph showing the quantification of the percent change in lysine succinylation (green) signal, from the immunofluorescence confocal micrographs of FIGS. 9B and 9D, in response to the treatment of PMA010. Asterisks indicate statistical significance calculated at the raw data level (n=3); **P<0.01. ****P<0.0001 statistically compared to untreated. Statistical analysis used T-test.
FIGS. 9A-9F are a comparison of lysine succinylation of cellular proteins visualized by immunofluorescence confocal microscopy in human HEK293 control and in untreated and treated HEK293 PCCA^−/− knock out cells. […] The PMA007 treatment data in the bar graph of FIG. 9E are the quantitation of the images of FIG. 9C compared to untreated control in FIG. 9B. […]

Take `C[C@@H](NC(=O)CCCCC(=O)O)C(=O)N[C@H](Cc1c[nH]cn1)C(=O)O` [PMA010, 6-(((R)-1-(((R)-1-carboxy-2-(1H-imidazol-4-yl)ethyl)amino)-1-oxopropan-2-yl)amino)-6-oxohexanoic acid]: the “lysine succinylation (green staining) compared to untreated cells” value in test [1] (FIG. 7, 90 μM, 72 hours, glutamine or pyruvate, lipid stripped FBS) is given as “obvious increase in the green staining”. In addition, the “lysine succinylation (green) signal” value in test [1] (FIGS. 8A-8F, 30 μM and 90 μM, pyruvate, glutamine, stripped FBS) is recorded as “Restoration of lysine succinylation (green) signal”; in test [2], “green color was restored”.
